The numbers were not newly measured in patent US9770413B2, “Amphiphilic dendron-coils, micelles thereof and uses” (THE BOARD OF TRUSTEES OF THE UNIVERSITY OF ILLINOIS, priority 2011, dated 2017), which cites them from elsewhere.

This series deals with folate receptors (FR).

The Kd is a measure of binding affinity in units of concentration. Regarding `Nc1nc2ncc(CNc3ccc(C(=O)N[C@@H](CCC(=O)O)C(=O)O)cc3)nc2c(=O)[nH]1` [FA, folic acid], the Kd is ~100 pM.
